The source of these data is patent US10183936B2, “Hepatitis B core protein allosteric modulators” (priority 2014, dated 2019).

Series [1] has as its system AD38 cells. Briefly: Viability of AD38 cells (Promega CellTiter-Glo) at the end of compound treatment. The class given is cell-based. The settings on record: 10 μM compound, 6 days, luminescence normalized against DMSO control wells (controls being 100%). The method in brief: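 Luminescent CellTiter-Glo read-out, taken after supernatant was swapped for tetracycline-free 2% FBS medium with 1% DMSO, gave percent viability relative to DMSO controls set at 100%. Cells were plated at 50,000/well and exposed to compound, added as a 10× stock in 10% DMSO, for 6 days at 37° C.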
In general terms: In ATP-based viability assays light output follows the ATP content of the culture.

Series [2] deals with HBV viral production in AD38 cells. Nature of the series: Viral load production in AD38 cells by quantitative PCR of the HBV core sequence in supernatant. The class given is cell-based. Particulars: Hepatitis B virus, 144 h; 10 μM compound, 6 days at 37° C., viral load in supernatant compared against DMSO control wells; read-out: AD38 Viral Load (CpAM/DMSO %) at 10 μM. The gist of the method: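 Read-out is TaqMan qPCR of the HBV core region in supernatant, quantitated against standards and referenced to DMSO controls (≥3 per plate). Cells: AD38 at 50,000/well, exposed to compound (added as 10× stock in 10% DMSO) for 6 days at 37° C.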

`O=C(NCCc1cccs1)c1ccc2c(c1)NC(=O)c1ccccc1S2` [Compound 1190]: the “AD38 Viability Normalized Result (CPAM/DMSO %) at 10 μM” value in series [1] worked out at 70%. Moreover, in series [2], the activity at 10 µM is 1%.

Take `COC(=O)c1ccc(-c2cccc(NC(=O)c3ccc4c(c3)NC(=O)c3cc(F)ccc3S4)c2)cc1` [Compound 1420, Methyl 3′-(2-fluoro-11-oxo-10, 11-dihydrodibenzo [b,f] [1,4]thiazepine-8-carboxamido)-[1,1′-biphenyl]-4-carboxylate]: the “AD38 Viability Normalized Result (CPAM/DMSO %) at 10 μM” value in series [1] is reported as 86%. Further, the activity at 10 µM in series [2] amounted to 29%.

With `O=C(NCc1ccccc1OC(F)(F)F)c1ccc2c(c1)NC(=O)c1ccccc1S2` [Compound 1232], the “AD38 Viability Normalized Result (CPAM/DMSO %) at 10 μM” value in series [1] is listed as 94%. Moreover, the activity at 10 µM in series [2] stood at 42%.

Take `O=C(NCc1cccc(F)c1)c1ccc2c(c1)NC(=O)c1ccccc1S2(=O)=O` [Compound 1622]: the “AD38 Viability Normalized Result (CPAM/DMSO %) at 10 μM” value in series [1] was 120%. For the same molecule, the activity at 10 µM in series [2] amounted to 0%.

As to `O=C(NC[C@@H](O)c1ccccc1)c1ccc2c(c1)NC(=O)c1ccccc1S2` [Compound 1226], the “AD38 Viability Normalized Result (CPAM/DMSO %) at 10 μM” value in series [1] is 80%. Moreover, the activity at 10 µM in series [2] is 1%.

`O=C(NC[C@@H](C(=O)O)c1ccccc1)c1ccc2c(c1)NC(=O)c1ccccc1S2` [Compound 1269, (S)-3-(11-oxo-10, 11-dihydrodibenzo [b,f] [1,4]thiazepine-8-carboxamido)-2-phenylpropanoic acid]: in series [1], the “AD38 Viability Normalized Result (CPAM/DMSO %) at 10 μM” value was found to be 107%. In series [2], the activity at 10 µM came to 63%.

As for `O=C(Nc1ccncc1)c1ccc2c(c1)NC(=O)c1ccccc1S2` [Compound 1444], the “AD38 Viability Normalized Result (CPAM/DMSO %) at 10 μM” value in series [1] is given as 65%. In addition, the activity at 10 µM in series [2] amounted to 6%.

Turning to `CN(C)CCOc1ccc(CCNC(=O)c2ccc3c(c2)NC(=O)c2ccccc2S3)cc1` [Compound 1154], the “AD38 Viability Normalized Result (CPAM/DMSO %) at 10 μM” value in series [1] is listed as 50%. For the same molecule, in series [2], the activity at 10 µM came to 90%.

With `O=C(Nc1ccccn1)c1ccc2c(c1)NC(=O)c1ccccc1S2` [Compound 1230], the “AD38 Viability Normalized Result (CPAM/DMSO %) at 10 μM” value in series [1] came out at 102%. For the same molecule, the activity at 10 µM in series [2] was 46%.

As for `O=C(NCc1cnco1)c1ccc2c(c1)NC(=O)c1ccccc1[S+]2[O-]` (stereo not drawn) [Compound 1381], the “AD38 Viability Normalized Result (CPAM/DMSO %) at 10 μM” value in series [1] is reported as 93%. Besides, in series [2], the activity at 10 µM worked out at 40%.

In the case of `O=C(Nc1cncc(F)c1)c1ccc2c(c1)NC(=O)c1cc(F)ccc1S2` [Compound 1337], the “AD38 Viability Normalized Result (CPAM/DMSO %) at 10 μM” value in series [1] came to 91%. The activity at 10 µM in series [2] came out at 77%.

Regarding `O=C(NCCC(c1ccccc1)N1CCCC1)c1ccc2c(c1)NC(=O)c1ccccc1S2` (stereo not drawn) [Compound 1252], the “AD38 Viability Normalized Result (CPAM/DMSO %) at 10 μM” value in series [1] was 94%. The activity at 10 µM in series [2] amounted to 14%.

As to `O=C(NCCc1cc[nH]n1)c1ccc2c(c1)NC(=O)c1ccccc1S2` [Compound 1270], the “AD38 Viability Normalized Result (CPAM/DMSO %) at 10 μM” value in series [1] stood at 94%. The activity at 10 µM in series [2] is 1%.

Regarding `O=C(NCCc1ccc(O)cc1)c1ccc2c(c1)NC(=O)c1ccccc1S2` [Compound 1115], the “AD38 Viability Normalized Result (CPAM/DMSO %) at 10 μM” value in series [1] worked out at 106%. Besides, the activity at 10 µM in series [2] was found to be 1%.

Take `O=C(NCCc1cccc(O)c1)c1ccc2c(c1)NC(=O)c1ccccc1S2` [Compound 1118]: in series [1], the “AD38 Viability Normalized Result (CPAM/DMSO %) at 10 μM” value was 95%. For the same molecule, the activity at 10 µM in series [2] was 61%.

Take `CC(C)(C)c1ccc(CCNC(=O)c2ccc3c(c2)NC(=O)c2ccccc2S3)cc1` [Compound 1194]: the “AD38 Viability Normalized Result (CPAM/DMSO %) at 10 μM” value in series [1] turned out to be 45%. Further, the activity at 10 µM in series [2] amounted to 1%.

As to `Cc1c(C(=O)Nc2ccncc2)ccc2c1NC(=O)c1ccccc1S2` [Compound 1516], the “AD38 Viability Normalized Result (CPAM/DMSO %) at 10 μM” value in series [1] was 82%. Moreover, the activity at 10 µM in series [2] came to 30%.

As for `O=C(Nc1ccncc1)c1ccc2c(c1)NC(=O)c1cccc(F)c1S2` [Compound 1393], the “AD38 Viability Normalized Result (CPAM/DMSO %) at 10 μM” value in series [1] was found to be 87%. Besides, in series [2], the activity at 10 µM was determined as 41%.
